Laboratory results from patent US20240360178A1, “MACROCYCLIC IMMUNOMODULATORS” (Bristol-Myers Squibb Company, priority 2021, published 2024).
Positions of bridges follow the written chain, without caps; N, C: chain ends. Non-standard residues stand in square brackets, D forms with d. Residues, ends and D or L forms follow the SMILES beside them. ξ: configuration not given here. *: point of attachment. Ala(1H-tetrazol-5-yl) = N[C@@H](Cc1nnn[nH]1)C(=O)O; Bip = N[C@@H](Cc1ccc(-c2ccccc2)cc1)C(=O)O; Phe(2-Me) = Cc1ccccc1C[C@H](N)C(=O)O; NMeF = CN[C@@H](Cc1ccccc1)C(=O)O; 4Pal = N[C@@H](Cc1ccncc1)C(=O)O; dHyp = O=C(O)[C@H]1C[C@H](O)CN1; Carboxymethyl = O=C(O)C*; NMeA = CN[C@@H](C)C(=O)O; Orn = NCCC[C@H](N)C(=O)O; ξV = CC(C)C(N)C(=O)O; Sar = CNCC(=O)O

Each molecule was assayed against T1, human PD-1 (Jurkat-PD-1 cells) / PE-labeled human PD-L1-Ig (Homo sapiens, UniProt Q15116) (assay: Jurkat-PD-1 Cell Binding High-Content Screening Assay (CBA); Jurkat hPD1-PDL1 assay). Conditions: Jurkat cell line over-expressing human PD-1; PE-labeled PD-L1-Ig 20 nM final; compound incubated 2 hours at 37° C.; read-out: Jurkat HPD1-PDL1 IC50.
T1 construct: expressed in transfected cells; host or cells: Jurkat cell line over-expressing human PD-1
T1 sequence (Q15116 25-288): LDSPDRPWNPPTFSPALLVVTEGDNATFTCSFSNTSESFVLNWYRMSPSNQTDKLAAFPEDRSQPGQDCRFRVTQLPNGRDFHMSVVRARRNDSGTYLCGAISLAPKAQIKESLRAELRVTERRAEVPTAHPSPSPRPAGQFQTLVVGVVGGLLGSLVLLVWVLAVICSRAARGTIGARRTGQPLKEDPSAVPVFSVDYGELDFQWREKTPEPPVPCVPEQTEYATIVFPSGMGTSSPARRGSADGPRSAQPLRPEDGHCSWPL
Summary of the method: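 Binding of phycoerythrin-conjugated PD-L1-Ig (20 nM final) to PD-1-overexpressing Jurkat cells was read by high-content imaging. Cells in DMEM/10% FCS were exposed to compound for 2 hours at 37° C before labeled ligand was added.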
An IC50 of 60 nM was found for `CC(C)C[C@@H]1NC(=O)[C@H](Cc2c[nH]c3ccccc23)NC(=O)[C@H](CC(=O)O)NC(=O)[C@H](Cc2ccc(O)cc2)NC(=O)[C@H](CC(N)=O)NC(=O)CSC[C@@H](C(=O)N[C@@H](C)C(N)=O)NC(=O)[C@H](CO)NC(=O)[C@H](C(C)C)NC(=O)[C@H](CC(C)C)NC(=O)[C@H](CC(N)=O)NC(=O)[C@H]2CCCN2C(=O)[C@H](C)N(C)C(=O)[C@H](C(C)C)NC(=O)[C@H](Cc2ccc(-c3ccccc3)cc2)NC1=O` [Example 1031] ({CH2CO}-NYDWL[Bip]V[NMeA][dP]NLVSCA-NH2; thioether N-14) in this work. An IC50 of 120 nM was found for `CC(C)C[C@@H]1NC(=O)[C@H](Cc2c[nH]c3ccccc23)NC(=O)[C@H](CC(=O)O)NC(=O)[C@H](Cc2ccc(OCC(=O)O)cc2)NC(=O)[C@H](Cc2cnc[nH]2)NC(=O)CSC[C@@H](C(=O)N[C@@H](C)C(N)=O)NC(=O)[C@H](CO)NC(=O)[C@H](C(C)C)NC(=O)[C@H](CC(C)C)NC(=O)[C@H](CC(N)=O)NC(=O)[C@H]2CCCN2C(=O)[C@H](C)N(C)C(=O)[C@H](C(C)C)NC(=O)[C@H](Cc2ccc(-c3ccccc3)cc2)NC1=O` [Example 1052] ({CH2CO}-HY(Carboxymethyl)DWL[Bip]V[NMeA][dP]NLVSCA-NH2; thioether N-14) in this work. An IC50 of 950 nM was found for `Cc1ccccc1C[C@@H]1NC(=O)[C@H](CC(=O)O)NC(=O)[C@H](Cc2ccc(O)cc2)NC(=O)[C@H](Cc2ccccc2)NC(=O)CSC[C@@H](C(=O)N[C@@H](C)C(N)=O)NC(=O)[C@H](CO)NC(=O)[C@H](C(C)C)NC(=O)[C@H](CC(C)C)NC(=O)[C@H](CC(N)=O)NC(=O)CN(C)C(=O)[C@H](C)N(C)C(=O)[C@H](C(C)C)NC(=O)[C@H](Cc2ccc(-c3ccccc3)cc2)NC(=O)[C@H](CC(C)C)NC1=O` [Example 1172] ({CH2CO}-FYD[Phe(2-Me)]L[Bip]V[NMeA][Sar]NLVSCA-NH2; thioether N-14) in this work. An IC50 of 90 nM was found for `CC(C)C[C@@H]1NC(=O)[C@H](Cc2c[nH]c3ccccc23)NC(=O)[C@H](CC(=O)O)NC(=O)[C@H](Cc2ccncc2)NC(=O)[C@H](Cc2ccc(OCC(=O)O)cc2)NC(=O)CSC[C@@H](C(=O)N[C@@H](C)C(N)=O)NC(=O)[C@H](CO)NC(=O)[C@H](C(C)C)NC(=O)[C@H](CC(C)C)NC(=O)[C@H](CC(N)=O)NC(=O)[C@H]2CCCN2C(=O)[C@H](C)N(C)C(=O)[C@H](C(C)C)NC(=O)[C@H](Cc2ccc(-c3ccccc3)cc2)NC1=O` [Example 1435] ({CH2CO}-Y(Carboxymethyl)[4Pal]DWL[Bip]V[NMeA][dP]NLVSCA-NH2; thioether N-14) in this work. An IC50 of 900 nM was found for `CC(C)C[C@@H]1NC(=O)[C@H](C)NC(=O)CN(C)C(=O)[C@H](C)N(C)C(=O)[C@H](CCC(=O)O)NC(=O)[C@H](Cc2ccc(-c3ccccc3)cc2)NC(=O)[C@H](CC(C)C)NC(=O)[C@H](Cc2c[nH]c3ccccc23)NC(=O)[C@H](CC(=O)O)NC(=O)[C@H](Cc2ccc(O)cc2)NC(=O)[C@H](Cc2ccccc2)NC(=O)CSC[C@@H](C(=O)N[C@@H](C)C(N)=O)NC(=O)[C@H](CO)NC(=O)[C@H](C(C)C)NC1=O` [Example 1164] ({CH2CO}-FYDWL[Bip]E[NMeA][Sar]ALVSCA-NH2; thioether N-14) in this work. An IC50 of 420 nM was found for `CC(C)C[C@@H]1NC(=O)[C@H](CCCN)NC(=O)[C@H](Cc2ccccc2)N(C)C(=O)[C@H](C)N(C)C(=O)[C@H](CCCNC(=N)N)NC(=O)[C@H](Cc2ccc(-c3ccccc3)cc2)NC(=O)[C@H](C(C)C)NC(=O)[C@H](Cc2c[nH]c3ccccc23)NC(=O)[C@H](CC(=O)O)NC(=O)[C@H](Cc2ccc(O)cc2)NC(=O)[C@H](CC(N)=O)NC(=O)CSC[C@@H](C(=O)N[C@@H](CCC(=O)O)C(N)=O)NC(=O)[C@H]([C@@H](C)O)NC(=O)[C@H](C(C)C)NC1=O` [Example 1352] ({CH2CO}-NYDWV[Bip]R[NMeA][NMeF][Orn]LVTCE-NH2; thioether N-14) in this work. An IC50 of 370 nM was found for `CC(C)C[C@@H]1NC(=O)[C@H](Cc2c[nH]c3ccccc23)NC(=O)[C@H](Cc2nn[nH]n2)NC(=O)[C@H](Cc2ccc(O)cc2)NC(=O)[C@H](Cc2ccccc2)NC(=O)CSC[C@@H](C(=O)N[C@@H](C)C(N)=O)NC(=O)[C@H](CO)NC(=O)[C@H](C(C)C)NC(=O)[C@H](CC(C)C)NC(=O)[C@H](CC(N)=O)NC(=O)[C@H]2CCCN2C(=O)[C@H](C)N(C)C(=O)[C@H](C(C)C)NC(=O)[C@H](Cc2ccc(-c3ccccc3)cc2)NC1=O` [Example 1428] ({CH2CO}-FY[Ala(1H-tetrazol-5-yl)]WL[Bip]V[NMeA][dP]NLVSCA-NH2; thioether N-14) in this work. An IC50 of 210 nM was found for `CC(C)C[C@@H]1NC(=O)[C@H](Cc2c[nH]c3ccccc23)NC(=O)[C@H](CC(=O)O)NC(=O)[C@H](Cc2ccc(O)cc2)NC(=O)[C@H](Cc2ccccc2)NC(=O)CSC[C@@H](C(=O)N[C@@H](C)C(N)=O)NC(=O)[C@H]([C@@H](C)O)NC(=O)[C@H](C(C)C)NC(=O)[C@H](CC(C)C)NC(=O)[C@H](CC(N)=O)NC(=O)[C@H]2CCCN2C(=O)[C@H](CCCN)NC(=O)[C@H](C(C)C)NC(=O)[C@H](Cc2ccc(-c3ccccc3)cc2)NC1=O` [Example 1418] ({CH2CO}-FYDWL[Bip]V[Orn][dP]NLVTCA-NH2; thioether N-14) in this work. An IC50 of 940 nM was found for `CC(C)C[C@@H]1NC(=O)[C@H](Cc2c[nH]c3ccccc23)NC(=O)[C@H](CC(=O)O)NC(=O)[C@H](Cc2ccc(O)cc2)NC(=O)[C@H](Cc2ccccc2)NC(=O)CSC[C@@H](C(=O)N[C@@H](C)C(N)=O)NC(=O)[C@H]([C@@H](C)O)NC(=O)[C@H](CCCNC(=N)N)NC(=O)[C@H](CC(C)C)NC(=O)[C@H](CC(N)=O)NC(=O)[C@H]2CCCN2C(=O)[C@H](C)N(C)C(=O)[C@H](C(C)C)NC(=O)[C@H](Cc2ccc(-c3ccccc3)cc2)NC1=O` [Example 1171] ({CH2CO}-FYDWL[Bip]V[NMeA][dP]NLRTCA-NH2; thioether N-14) in this work. An IC50 of 760 nM was found for `CC(C)C[C@@H]1NC(=O)[C@H](Cc2c[nH]c3ccccc23)NC(=O)[C@H](CC(=O)O)NC(=O)[C@H](Cc2ccc(O)cc2)NC(=O)[C@H](Cc2ccccc2)NC(=O)CSC[C@@H](C(=O)N[C@@H](C)C(N)=O)NC(=O)[C@H](CO)NC(=O)[C@H](C(C)C)NC(=O)[C@H](CC(C)C)NC(=O)[C@H](CC(N)=O)NC(=O)CN(C)C(=O)[C@H]2C[C@H](O)CN2C(=O)C(C(C)C)NC(=O)[C@H](Cc2ccc(-c3ccccc3)cc2)NC1=O` (stereo partly drawn) [Example 1003] ({CH2CO}-FYDWL[Bip][ξV][dHyp][Sar]NLVSCA-NH2; thioether N-14) in this work. An IC50 of 600 nM was found for `CC(C)C[C@@H]1NC(=O)[C@H](Cc2c[nH]c3ccccc23)NC(=O)[C@H](CC(=O)O)NC(=O)[C@H](Cc2ccc(O)cc2)NC(=O)[C@H](CC(N)=O)NC(=O)CSC[C@@H](C(=O)NCC(N)=O)NC(=O)[C@H](CO)NC(=O)[C@H](C(C)C)NC(=O)[C@H](CC(C)C)NC(=O)[C@H](CC(N)=O)NC(=O)CN(C)C(=O)[C@H](C)N(C)C(=O)[C@H](C(C)C)NC(=O)[C@H](Cc2ccc(-c3ccccc3)cc2)NC1=O` [Example 1140] ({CH2CO}-NYDWL[Bip]V[NMeA][Sar]NLVSCG-NH2; thioether N-14) in this work. An IC50 of 160 nM was found for `CC(C)C[C@@H]1NC(=O)[C@H](CCCNC(=N)N)NC(=O)[C@H](Cc2ccccc2)N(C)C(=O)[C@H](C)N(C)C(=O)[C@H](CCCNC(=N)N)NC(=O)[C@H](Cc2ccc(-c3ccccc3)cc2)NC(=O)[C@H](C(C)C)NC(=O)[C@H](Cc2c[nH]c3ccccc23)NC(=O)[C@H](CC(=O)O)NC(=O)[C@H](Cc2ccc(O)cc2)NC(=O)[C@H](CO)NC(=O)CSC[C@@H](C(=O)NCC(N)=O)NC(=O)[C@H](CO)NC(=O)[C@H](C(C)C)NC1=O` [Example 1062] ({CH2CO}-SYDWV[Bip]R[NMeA][NMeF]RLVSCG-NH2; thioether N-14) in this work.
